Measured values reported in ChEMBL document CHEMBL5512632, “Unlocking the potential of 1,4-naphthoquinones: A comprehensive review of their anticancer properties” (Eur J Med Chem, 2024).

What was measured:
SCC-25 = assay: Cytotoxicity against human SCC-25 cells incubated for 48 hrs by MTT reagent based spectrophotometric analysis; type: functional, cell-based; settings: SCC-25, 48 h
[1] = Antiproliferative activity against human CAL-78 cells assessed as inhibition of cell growth incubated for 24 hrs by CellTiter-Glo luminescent assay; type: functional, cell-based; settings: CAL-78, 24 h
SW1353 = assay: Antiproliferative activity against human SW1353 cells assessed as inhibition of cell growth incubated for 24 hrs by CellTiter-Glo luminescent assay; type: functional, cell-based; settings: SW1353, 24 h
RPMI-8226 = assay: Cytotoxicity against human RPMI-8226 cells assessed as reduction in cell viability incubated for 72 hrs by MTT assay; type: functional, cell-based; settings: RPMI-8226, 72 h
MCF7 [2] = assay: Cytotoxicity against human MCF7 cells assessed as reduction in cell viability incubated for 72 hrs by MTT assay; type: functional, cell-based; settings: MCF7, 72 h
HepG2 [3] = assay: Cytotoxicity against human HepG2 cells assessed as reduction in cell viability incubated for 72 hrs by MTT assay; type: functional, cell-based; settings: HepG2, 72 h
[4] = system: KATO III stomach cancer cell line; assay: Antiproliferative activity against human KATO III stomach cancer cell line assessed as inhibition of cell growth incubated for 72 hrs by MTS assay; type: functional, cell-based
MCF7 [5] = assay: Antiproliferative activity against human MCF7 cells assessed as inhibition of cell growth incubated for 72 hrs by MTS assay; type: functional, cell-based; settings: MCF7, 72 h
T-24 = assay: Cytotoxicity against human T24 cells assessed as reduction in cell growth incubated for 48 hrs by MTT assay; type: functional, cell-based; settings: T-24, 48 h
DU-145 [6] = assay: Cytotoxicity against human DU-145 cells assessed as reduction in cell growth incubated for 48 hrs by MTT assay; type: functional, cell-based; settings: DU-145, 48 h
MCF7 [7] = assay: Cytotoxicity against human MCF7 cells assessed as reduction in cell growth incubated for 48 hrs by MTT assay; type: functional, cell-based; settings: MCF7, 48 h
MCF7 [8] = assay: Cytotoxicity against human MCF7 cells incubated for 24 hrs by MTT assay; type: functional, cell-based; settings: MCF7, 24 h
[9] = Cytotoxicity against human NCI-H358M cells incubated for 72 hrs by MTT assay; type: functional, cell-based
OVCAR-8 = assay: Cytotoxicity against human OVCAR-8 cells incubated for 72 hrs by MTT assay; type: functional, cell-based; settings: OVCAR-8, 72 h
PC-3M = assay: Cytotoxicity against human PC-3M cells incubated for 72 hrs by MTT assay; type: functional, cell-based
AGS = assay: Cytotoxicity against human AGS cells incubated for 72 hrs by MTT assay; type: functional, cell-based
SK-MES-1 = assay: Cytotoxicity against human SK-MES-1 cells incubated for 72 hrs by MTT assay; type: functional, cell-based; settings: SK-MES-1, 72 h
J82 = assay: Cytotoxicity against human J82 cells incubated for 72 hrs by MTT assay; type: functional, cell-based; settings: J82, 72 h
A549 = assay: Cytotoxicity against human A549 cells assessed as reduction in cell viability incubated for 24 hrs by MTT assay; type: functional, cell-based; settings: A549, 24 h
HeLa = assay: Cytotoxicity against human HeLa cells assessed as reduction in cell viability incubated for 24 hrs by MTT assay; type: functional, cell-based
MCF7 [10] = assay: Cytotoxicity against human MCF7 cells assessed as reduction in cell viability incubated for 24 hrs by MTT assay; type: functional, cell-based; settings: MCF7, 24 h
Hep 3B2 = assay: Cytotoxicity against human Hep3B cells assessed as inhibition of cell growth incubated for 24 hrs by MTT reagent based microplate reader assay; type: functional
HepG2 [11] = assay: Cytotoxicity against human HepG2 cells assessed as inhibition of cell growth incubated for 24 hrs by MTT reagent based microplate reader assay; type: functional; settings: HepG2, 24 h
Huh-7 = assay: Cytotoxicity against human Huh-7 cells assessed as inhibition of cell growth incubated for 24 hrs by MTT reagent based microplate reader assay; type: functional; settings: Huh-7, 24 h
HT-29 = assay: Cytotoxicity against human HT-29 cells assessed as inhibition of cell growth incubated upto 72 hrs by MTT assay; type: functional, cell-based; settings: HT-29, 72 h
SW480 = assay: Cytotoxicity against human SW480 cells assessed as inhibition of cell growth incubated upto 72 hrs by MTT assay; type: functional, cell-based; settings: SW480, 72 h
HepG2 [12] = assay: Cytotoxicity against human HepG2 cells assessed as inhibition of cell growth incubated upto 72 hrs by MTT assay; type: functional, cell-based; settings: HepG2, 72 h
HL-60 = assay: Cytotoxicity against human HL-60 cells assessed as inhibition of cell growth incubated upto 72 hrs by MTT assay; type: functional, cell-based; settings: HL-60, 72 h
MCF7 [13] = assay: Cytotoxicity against human MCF7 cells assessed as inhibition of cell growth incubated upto 72 hrs by MTT assay; type: functional, cell-based; settings: MCF7, 72 h
DU-145 [14] = assay: Cytotoxicity against human DU-145 cells incubated for 48 hrs by MTT assay; type: functional, cell-based; settings: DU-145, 48 h
MCF7 [15] = assay: Cytotoxicity against human MCF7 cells incubated for 48 hrs by MTT assay; type: functional, cell-based; settings: MCF7, 48 h
GBM = assay: Cytotoxicity against human GBM cells assessed as inhibition of cell growth incubated for 72 hrs by MTT assay; type: functional, cell-based
U-87 MG = assay: Cytotoxicity against human U87 cells assessed as inhibition of cell growth incubated for 72 hrs by MTT assay; type: functional, cell-based, U-87MG ATCC

With CC(C)/C=C/C1=C(OCc2cn(-c3cccc(Cl)c3)nn2)C(=O)c2ccccc2C1=O the IC50 (SCC-25) was 9.81 µM.

Compound CC(C)=CC[C@@H](OC(=O)C1CC1)C1=CC(=O)c2c(O)ccc(O)c2C1=O has an IC50 [1] of 2.9 µM and an IC50 (SW1353) of 1.2 µM.

Compound CCOC(=O)CCCCCNC1=C(F)C(=O)c2c(F)c(F)c(F)c(F)c2C1=O has an IC50 (RPMI-8226) of 2.8 µM, an IC50 (MCF7 [2]) of 1.4 µM and an IC50 (HepG2 [3]) of 2.1 µM.

Compound CC(C)=CCCc1ccc2c(c1)C(=O)c1c(cnn1CCO)C2=O has an IC50 [4] of 25.5 µM and an IC50 (MCF7 [5]) of 27.5 µM.

With O=C(C1=C(Nc2ccccc2)C(=O)c2ccccc2C1=O)c1ccco1 the IC50 (T-24) was 11.7 µM, the IC50 (DU-145 [6]) was 5.45 µM and the IC50 (MCF7 [7]) was 4.64 µM. For the same compound, the EC50 (MCF7 [8]) was 15 µM.

With CC1(O)CCC(C#CC2=C(C#CC3CCC(C)(O)CC3)C(=O)c3ccccc3C2=O)CC1 (stereo not drawn) the IC50 [9] was 2.98 µM, the IC50 (OVCAR-8) was 2.28 µM and the IC50 (PC-3M) was 4.28 µM.

For CCCCCC(=O)C1=C(/C(C(=O)OC)=C(\C)NC(Cc2c[nH]c3ccccc23)C(=O)OC)C(=O)c2ccccc2C1=O (stereo not drawn), the IC50 (AGS) was 9.3 µM, the IC50 (SK-MES-1) was 5.5 µM and the IC50 (J82) was 4.5 µM.

Compound O=C(Nc1ccc(S(=O)(=O)c2ccc(NC3=C(Sc4ccccc4)C(=O)c4ccccc4C3=O)cc2)cc1)c1cc(Cl)cc(Cl)c1 has an IC50 (A549) of 1.98 µM, an IC50 (HeLa) of 1.17 µM and an IC50 (MCF7 [10]) of 0.05 µM.

Compound CCCS(=O)(=O)C12OC1C(=O)c1c(OC)ccc(OC)c1C2=O (stereo not drawn) has an IC50 (Hep 3B2) of 3.89 µM, an IC50 (HepG2 [11]) of 5.26 µM and an IC50 (Huh-7) of 7.68 µM.

In the case of CC(C)=CCC/C(C)=C/CC/C(C)=C/CC1=C(O)C(=O)c2ccccc2C1=O, the IC50 (HT-29) is reported as 1.99 µM, the IC50 (SW480) is reported as 2.02 µM and the IC50 (HepG2 [12]) is reported as 14 µM. For the same compound, the IC50 (HL-60) was 5.41 µM and the IC50 (MCF7 [13]) was 47 µM.

Work on COc1cc(N)cc(OC)c1C1=C(C(C)=O)C(=O)c2ccccc2C1=O yielded an IC50 (DU-145 [14]) of 12.3 µM and an IC50 (MCF7 [15]) of 21.2 µM.

In the case of CC(C)=CCC1=C(NCCCCN(CCCN)Cc2ccccc2)C(=O)c2ccccc2C1=O, the IC50 (GBM) is reported as 6.6 µM and the IC50 (U-87 MG) is reported as 4.3 µM.
